These are literature values, as cited in patent US8581001B2, “Metformin-cysteine prodrug” (Codman & Shurtleff, priority 2010, dated 2013).

The test system of one data set is human patients. To be noted: human patients (NASH).
Assay in data set [1]: not given
The source holds these as a separate data set.

The target of the next data set is T1, LAT2 (Homo sapiens, UniProt Q9UHI5).
T1 sequence (Q9UHI5 1-535): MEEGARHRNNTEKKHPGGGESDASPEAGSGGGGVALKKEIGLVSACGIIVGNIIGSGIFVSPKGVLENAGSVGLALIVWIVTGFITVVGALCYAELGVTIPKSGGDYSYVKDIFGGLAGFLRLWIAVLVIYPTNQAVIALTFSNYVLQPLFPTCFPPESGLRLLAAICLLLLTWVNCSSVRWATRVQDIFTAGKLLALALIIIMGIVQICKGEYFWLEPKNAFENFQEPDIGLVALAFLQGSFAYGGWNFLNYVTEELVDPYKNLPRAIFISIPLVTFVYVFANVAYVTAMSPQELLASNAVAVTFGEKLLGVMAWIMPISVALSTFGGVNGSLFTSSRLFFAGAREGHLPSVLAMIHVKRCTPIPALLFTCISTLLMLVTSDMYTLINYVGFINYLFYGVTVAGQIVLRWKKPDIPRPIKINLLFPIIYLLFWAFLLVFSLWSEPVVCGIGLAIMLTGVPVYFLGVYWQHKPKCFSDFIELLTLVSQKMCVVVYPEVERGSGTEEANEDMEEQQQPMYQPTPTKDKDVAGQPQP
T1 sequence (P08195 1-529 partner): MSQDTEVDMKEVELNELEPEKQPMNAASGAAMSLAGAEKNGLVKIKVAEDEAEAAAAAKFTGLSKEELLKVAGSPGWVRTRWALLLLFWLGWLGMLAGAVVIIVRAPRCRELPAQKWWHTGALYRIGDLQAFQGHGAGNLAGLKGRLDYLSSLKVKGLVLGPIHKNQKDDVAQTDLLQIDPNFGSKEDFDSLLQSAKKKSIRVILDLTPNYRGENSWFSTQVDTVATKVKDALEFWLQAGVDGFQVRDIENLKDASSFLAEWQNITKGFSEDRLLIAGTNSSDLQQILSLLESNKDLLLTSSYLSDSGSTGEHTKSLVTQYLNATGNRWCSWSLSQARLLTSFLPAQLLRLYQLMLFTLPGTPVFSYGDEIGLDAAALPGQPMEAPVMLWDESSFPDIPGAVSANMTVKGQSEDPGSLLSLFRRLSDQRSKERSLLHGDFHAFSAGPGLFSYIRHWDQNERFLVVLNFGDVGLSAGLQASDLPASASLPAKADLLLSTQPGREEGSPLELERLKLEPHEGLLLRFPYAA

A further data set addresses LAT1 (Homo sapiens, UniProt Q01650).

Structures are written as SMILES.

Chain of LAT1 (Q01650 whole entry, species assumed, one chain of several): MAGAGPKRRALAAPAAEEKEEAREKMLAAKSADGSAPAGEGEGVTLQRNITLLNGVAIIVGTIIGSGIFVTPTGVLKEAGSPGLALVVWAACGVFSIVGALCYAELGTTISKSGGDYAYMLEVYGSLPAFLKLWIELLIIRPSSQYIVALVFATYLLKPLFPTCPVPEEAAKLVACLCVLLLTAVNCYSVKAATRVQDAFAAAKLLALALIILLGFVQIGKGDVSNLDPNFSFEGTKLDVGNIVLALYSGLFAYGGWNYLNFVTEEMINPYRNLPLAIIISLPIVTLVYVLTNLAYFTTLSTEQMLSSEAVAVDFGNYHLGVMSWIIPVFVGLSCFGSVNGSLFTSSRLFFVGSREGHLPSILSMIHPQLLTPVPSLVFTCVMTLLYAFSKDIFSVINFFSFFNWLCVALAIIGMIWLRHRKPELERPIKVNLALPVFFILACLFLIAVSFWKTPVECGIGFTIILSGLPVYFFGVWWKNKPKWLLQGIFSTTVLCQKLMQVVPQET

In the case of `N[C@@H](CCC(=O)N[C@@H](CSSC[C@H](N)C(=O)O)C(=O)NCC(=O)O)C(=O)O` [Cy-LLGSH], the “protection against acetaminophen-induced hepatotoxicity” value with mice is on record as “highly effective”.
Regarding `CC(=O)N[C@@H](CS)C(=O)O` [NAC, n-acetylcysteine], the “amelioration of the complications of non-alcoholic fatty liver disease” value in the data set with human patients is “neither metformin nor NAC alone provided any significant benefits”.
As to `CN(C)C(=N)N=C(N)N` [metformin], the “absorption in the colon” value (colon) is “poorly absorbed”. The “uptake in the small intestine” value (small intestine) was “effectively taken up”. Besides, in data set [1] (FIG. 4 of US 2007-0154548), the “window in which metformin is above ½ of its Cmax” value was “about 6 hours”. Besides, the “time window for effective plasma concentrations” value in data set [1] (in vivo) is “about 6 hours”. Also, the “amelioration of the complications of non-alcoholic fatty liver disease” value in the data set on human patients is “neither metformin nor NAC alone provided any significant benefits”.
For the compound `N[C@@H](CSN=O)C(=O)O` [s-nitroso-L-cysteine], on LAT2, the “transport by LAT2 transporter” value is “efficiently transported”. For the same compound, the “transport by LAT1 transporter” value on LAT1 is “efficiently transported”.
